In patent US10036034B2, “Sequences involved in plant yield and methods of using” (NUtech Ventures, priority 2014, dated 2018):
Where two headings read alike, the source gives them in different places. Marks after values point to notes of the source that are not given here.

Key:
LRD7Ag = experiment: qRT-PCR of LRD7Ag root transcript in GA pretreated TL seedlings; format: in vivo, wheat; conditions: GA pretreated TL seedlings in LW
Description: FIG. 13 is data showing that gibberellins (GA) regulate lateral root formation in wheat. Panel (a) is a graph showing GA1 levels in P76 and TL roots in WW and LW conditions (mean±sd, n=30). “a” represents differences between WW and LW for a genotype and “b” represents significant genotypic differences under LW (p<0.05). Panel (b) is a graph showing expression of Agropyron allele of LRD7 (LRD7Ag) in the TL line in WW and LW conditions, with and without GA3 treatment. Transcript abundance was measured relative to WW, non-GA3 treated sample (mean±sd, n=3). “a” represents significant differences between WW and LW for roots with GA3 and no GA3 treatment, “b” represents a significant difference in response to GA treatment (p<0.05). […] Expression values were obtained relative to WW, non-GA3 treated sample as control (mean±sd, n=3). “a” represents significant differences between WW and LW for a genotype and “b” represents significant genotypic differences in LW conditions (p<0.05). […]
(§1) We used SuperScript VILO to synthesize cDNA for semi- and real-time quantitative PCR (qPCR) (Invitrogen Corp., Carlsbad, Calif.). […] Crossing point value (Cp or Ct), which was the point at which the fluorescence crosses the threshold, and melting curve analyses were obtained using the LightCycler Roche 480 Software v1.5. […]

LRD7Ta = experiment: qRT-PCR of LRD7Ta expression in GA pretreated P76 roots; format: in vivo, wheat
Description: FIG. 13 is data showing that gibberellins (GA) regulate lateral root formation in wheat. Panel (a) is a graph showing GA1 levels in P76 and TL roots in WW and LW conditions (mean±sd, n=30). “a” represents differences between WW and LW for a genotype and “b” represents significant genotypic differences under LW (p<0.05). Panel (b) is a graph showing expression of Agropyron allele of LRD7 (LRD7Ag) in the TL line in WW and LW conditions, with and without GA3 treatment. Transcript abundance was measured relative to WW, non-GA3 treated sample (mean±sd, n=3). “a” represents significant differences between WW and LW for roots with GA3 and no GA3 treatment, “b” represents a significant difference in response to GA treatment (p<0.05). […] “a” represents significant differences between WW and LW for a genotype and “b” represents significant genotypic differences in LW conditions (p<0.05). […] The “a” represents significance between WW and LW and “b” indicates significance between CBO37 and RNAi or OE events or between P76 and TL under LW (p<0.05).
as §1

TL and P76 seedlings = experiment: Effect of Gibberellin A3 (GA3) on lateral root density of wheat seedlings in WW and LW conditions; format: in vivo; conditions: for Lateral Root (PR) / Lateral Root Density / Primary Root Length: mean ± s.d., n = 30
Description: (§2) For the early seedling stage root screening we used the cigar roll method (Zhu et al., 2006, TAG, 113:1-10). Similar sized seeds were germinated in a petri dish with moist paper towel for three days in the dark at 22-2S° C. Three seedlings per genotype were placed between two sheets of germination paper and rolled vertically. Three batches of 10 cigar rolls, totaling 30 plants per genotype were soaked in tap water and placed vertically in 1 L beaker filled with SO mL of water. Seedlings were grown in a controlled environment using a Percival Intellus Control System incubator (Model: I36VLC8) set at 25/27° C., 11.5/12.5 h day/night, 50/70% relative humidity and illumination of 80 μmols m^−2 sec^−1 during the duration of the experiments (Percival Scientific, Inc., Iowa). Water was added to each beaker twice daily to maintain the volume of 50 ml. All measurements were carried until 6 days after germination. Measurements after Day 6 can potentially be affected by limiting seed resources that drive seedling growth. For gene expression experiments, seedlings were harvested at 2, 4 and 6 days after germination. Root tissue samples were collected and snap frozen. It was hypothesized that the differences in biomass and yield between the Agropyron 7DL lines and the corresponding parental genotypes could be due to increased investment in root production, thus increasing acquisition of water and nutrients from the soil. We used a parent line, Pavon76 (P76), the 1-96-1 translocation line (TL), and a negative control (NC) for the translocation event for these experiments (FIG. 1). The total number of lateral roots (>1 mm) on the primary root axis were counted, and lateral root density was calculated by dividing the number of lateral roots on the primary root axis by the primary root length. Statistical significance was determined using a one-way ANOVA using Tukeys method. Transcriptomic comparison of the TL line and P76 indicated the differential regulation of several gibberellic acid associated genes (GSE42214; Table 8). Therefore, we tested the role of GA in lateral root regulation by treating TL and P76 seedlings with 104 GA3 in WW and LW conditions. […] Given the positive impact of exogenous GA on lateral roots, we measured the endogenous GA level in 6 d seedling roots. GA1 decreased in P76 in LW compared to WW (FIG. 13a). […] Higher GA levels in TL than P76 in LW is likely associated with its ability to maintain lateral root growth in LW. Auxin, which promotes lateral root growth, was not deficient in P76 relative to TL in LW, further supporting a GA-dependent mechanism for maintaining lateral root growth in TL (FIG. 21) (Orman-Ligeza et al., 2013, Trends Plant Sci., 18:459-67; Lavenus et al, 2013, Trends Plant Sci., 18:450-8).

P76 and TL seedlings = experiment: Effect of GA biosynthesis inhibitor Paclobutrazol (PAC) on lateral root density of wheat seedlings; format: in vivo; conditions: for Lateral Root Density / Number of Lateral Roots / Primary Root Length: 6 d old seedlings
Description: as §2

C=C1C[C@]23C[C@@]1(O)CC[C@H]2[C@@]12C=C[C@H](O)[C@@](C)(C(=O)O1)[C@H]2[C@@H]3C(=O)O [GA3, Gibberellin A3]
Repression of root transcript abundance of LRD7Ag relative to untreated WW control (LRD7Ag): 5 fold
LRD7Ta expression in roots compared to LW (no GA) roots (LRD7Ta): down-regulated
LRD7Ta expression in roots compared to LW (no GA) roots (LRD7Ta; listed as GA): decreased LRD7Ta expression
Effect of GA treatment on lateral root number and density (TL and P76 seedlings; P76, LW): restored lateral root number and density to WW levels
Lateral Root (PR) (TL and P76 seedlings; P76, LW (+GA3)): 23 ± 3^b
Lateral Root Density (TL and P76 seedlings; P76, LW (+GA3)): 0.96 ± 0.1^b cm^−1
Primary Root Length (TL and P76 seedlings; P76, LW (+GA3)): 23.9 ± 2.2^b cm
Lateral Root (PR) (TL and P76 seedlings; P76, WW (+GA3)): 24 ± 4
Lateral Root Density (TL and P76 seedlings; P76, WW (+GA3)): 0.96 ± 0.1 cm⁻¹
Primary Root Length (TL and P76 seedlings; P76, WW (+GA3)): 25.5 ± 2.8 cm
Effect of GA treatment on roots (TL and P76 seedlings; P76 and TL, WW conditions): had no effect on roots of either genotype
Effect of GA treatment on lateral root number and density (TL and P76 seedlings; TL, LW): increased the TL lateral root number and density under LW to above the untreated values
Lateral Root (PR) (TL and P76 seedlings; TL, LW (+GA3)): 38 ± 4^b
Lateral Root Density (TL and P76 seedlings; TL, LW (+GA3)): 1.44 ± 0.1^b cm^−1
Primary Root Length (TL and P76 seedlings; TL, LW (+GA3)): 26.4 ± 2.4 cm
Lateral Root (PR) (TL and P76 seedlings; TL, WW (+GA3)): 24 ± 5
Lateral Root Density (TL and P76 seedlings; TL, WW (+GA3)): 0.89 ± 0.2 cm⁻¹

CC(C)(C)[C@@H](O)[C@@H](Cc1ccc(Cl)cc1)n1cncn1 (racemic) [PAC, Paclobutrazol]
Lateral Root Density (P76 and TL seedlings; P76, LW (+PAC)): 0.22 ± 0.1^b cm−1
Number of Lateral Roots (P76 and TL seedlings; P76, LW (+PAC)): 5 ± 2^b
Primary Root Length (P76 and TL seedlings; P76, LW (+PAC)): 24.2 ± 2.9 cm
Lateral Root Density (P76 and TL seedlings; P76, WW (+PAC)): 0.45 ± 0.1^b cm−1
Number of Lateral Roots (P76 and TL seedlings; P76, WW (+PAC)): 11 ± 2^b
Primary Root Length (P76 and TL seedlings; P76, WW (+PAC)): 25.3 ± 3.0 cm
Lateral Root Density (P76 and TL seedlings; TL, LW (+PAC)): 0.41 ± 0.1^b cm−1
Number of Lateral Roots (P76 and TL seedlings; TL, LW (+PAC)): 10 ± 1^b
Primary Root Length (P76 and TL seedlings; TL, LW (+PAC)): 23.9 ± 2.6 cm
Lateral Root Density (P76 and TL seedlings; TL, WW (+PAC)): 0.49 ± 0.1^b cm−1
Number of Lateral Roots (P76 and TL seedlings; TL, WW (+PAC)): 11 ± 2^b
Primary Root Length (P76 and TL seedlings; TL, WW (+PAC)): 22.7 ± 2.4 cm
Effect on lateral root formation (P76 and TL seedlings; both P76 and TL): specifically suppressed lateral root formation
